Measurements as given in ChEMBL document CHEMBL1132520, “Antimalarial activity of 3-hydroxyalkyl-2-methylene-propionic acid derivatives” (1999).
Activity calls are given as the source filed them. No cut-off for these calls is given here.

Legend:
[1] = tested on: Plasmodium falciparum; assay: In vitro antimalarial activity for chloroquine-resistant Plasmodium falciparum at 32 uM/well dose at 24 hrs in Schizont maturation assay; assay type: functional
[2] = tested on: Plasmodium falciparum; assay: In vitro inhibition of Plasmodium falciparum at 1.0 uM/well dose at 72 hrs in total parasite growth assay; assay type: functional
[3] = tested on: Plasmodium falciparum; assay: In vitro antimalarial activity for chloroquine-resistant Plasmodium falciparum at 16 uM/well dose at 24 hrs in Schizont maturation assay; assay type: functional
[4] = tested on: Plasmodium falciparum; assay: In vitro antimalarial activity for Plasmodium falciparum at 8 uM/well dose at 24 hrs in Schizont maturation assay; assay type: functional
[5] = tested on: Plasmodium falciparum; assay: In vitro antimalarial activity for chloroquine-resistant Plasmodium falciparum at 1 uM/well dose at 24 hrs in Schizont maturation assay; assay type: functional
[6] = tested on: Plasmodium falciparum; assay: In vitro antimalarial activity for Plasmodium falciparum at 64 uM/well dose at 24 hrs in Schizont maturation assay; assay type: functional
[7] = tested on: Plasmodium falciparum; assay: In vitro inhibition of Plasmodium falciparum at 16 uM/well dose at 72 hrs in total parasite growth assay; assay type: functional
[8] = tested on: Plasmodium falciparum; assay: In vitro inhibition of Plasmodium falciparum at 4 uM/well dose at 72 hrs in total parasite growth assay; assay type: functional
[9] = tested on: Plasmodium falciparum; assay: In vitro antimalarial activity for Plasmodium falciparum at 32 uM/well dose at 24 hrs in Schizont maturation assay; assay type: functional
[10] = tested on: Plasmodium falciparum; assay: In vitro inhibition of Plasmodium falciparum at 8 uM/well dose at 72 hrs in total parasite growth assay; assay type: functional
[11] = tested on: Plasmodium falciparum; assay: In vitro antimalarial activity for Plasmodium falciparum at 1 uM/well dose at 24 hrs in Schizont maturation assay; assay type: functional
[12] = tested on: Plasmodium falciparum; assay: In vitro inhibition of Plasmodium falciparum at 2 uM/well dose at 72 hrs in total parasite growth assay; assay type: functional
[13] = tested on: Plasmodium falciparum; assay: In vitro antimalarial activity for chloroquine-resistant Plasmodium falciparum at 2 uM/well dose at 24 hrs in Schizont maturation assay; assay type: functional
[14] = tested on: Plasmodium falciparum; assay: In vitro antimalarial activity for chloroquine-resistant Plasmodium falciparum at 64 uM/well dose at 24 hrs in Schizont maturation assay; assay type: functional
[15] = tested on: Plasmodium falciparum; assay: In vitro antimalarial activity for Plasmodium falciparum at 2 uM/well dose at 24 hrs in Schizont maturation assay; assay type: functional
[16] = tested on: Plasmodium falciparum; assay: In vitro antimalarial activity for Plasmodium falciparum at 4 uM/well dose at 24 hrs in Schizont maturation assay; assay type: functional
[17] = tested on: Plasmodium falciparum; assay: In vitro inhibition of Plasmodium falciparum at 64 uM/well dose at 72 hrs in total parasite growth assay; assay type: functional
[18] = tested on: Plasmodium falciparum; assay: In vitro inhibition of Plasmodium falciparum at 32 uM/well dose at 72 hrs in total parasite growth assay; assay type: functional
[19] = tested on: Plasmodium falciparum; assay: In vitro antimalarial activity for chloroquine-resistant Plasmodium falciparum at 8 uM/well dose at 24 hrs in Schizont maturation assay; assay type: functional
[20] = tested on: Plasmodium falciparum; assay: In vitro antimalarial activity for Plasmodium falciparum at 16 uM/well dose at 24 hrs in Schizont maturation assay; assay type: functional
[21] = tested on: Plasmodium falciparum; assay: In vitro antimalarial activity for chloroquine-resistant Plasmodium falciparum at a dose of 4 uM/well through Schizonts maturation assay over 24 hr; assay type: functional
[22] = tested on: Plasmodium falciparum; assay: In vitro inhibition of Plasmodium falciparum at 2.5 uM/well dose at 72 hrs in total parasite growth assay; assay type: functional
[23] = tested on: Plasmodium falciparum; assay: In vitro inhibition of Plasmodium falciparum at 25 uM/well dose at 72 hrs in total parasite growth assay; assay type: functional
[24] = tested on: Plasmodium falciparum; assay: In vitro inhibition of Plasmodium falciparum at 100 uM/well dose at 72 hrs in total parasite growth assay; assay type: functional
[25] = tested on: Plasmodium falciparum; assay: In vitro antimalarial activity for Plasmodium falciparum at 100 uM/well dose at 24 hrs in Schizont maturation assay; assay type: functional
[26] = tested on: Plasmodium falciparum; assay: In vitro antimalarial activity for Plasmodium falciparum at 2.5 uM/well dose at 24 hrs in Schizont maturation assay; assay type: functional
[27] = tested on: Plasmodium falciparum; assay: In vitro inhibition of Plasmodium falciparum at 0.5 uM/well dose at 72 hrs in total parasite growth assay; assay type: functional
[28] = tested on: Plasmodium falciparum; assay: In vitro inhibition of Plasmodium falciparum at 5 uM/well dose at 72 hrs in total parasite growth assay; Not determined; assay type: functional
[29] = tested on: Plasmodium falciparum; assay: In vitro inhibition of Plasmodium falciparum at 10 uM/well dose at 72 hrs in total parasite growth assay; assay type: functional
[30] = tested on: Plasmodium falciparum; assay: In vitro antimalarial activity for Plasmodium falciparum at 5 uM/well dose at 24 hrs in Schizont maturation assay; assay type: functional
[31] = tested on: Plasmodium falciparum; assay: In vitro antimalarial activity for Plasmodium falciparum at 20 uM/well dose at 24 hrs in Schizont maturation assay; assay type: functional
[32] = tested on: Plasmodium falciparum; assay: In vitro antimalarial activity for Plasmodium falciparum at 0.25 uM/well dose at 24 hrs in Schizont maturation assay; assay type: functional
[33] = tested on: Plasmodium falciparum; assay: In vitro antimalarial activity for Plasmodium falciparum at 0.10 uM/well dose at 24 hrs in Schizont maturation assay; assay type: functional
[34] = tested on: Plasmodium falciparum; assay: In vitro antimalarial activity for Plasmodium falciparum at 0.50 uM/well dose at 24 hrs in Schizont maturation assay; assay type: functional
[35] = tested on: Plasmodium falciparum; assay: In vitro antimalarial activity for Plasmodium falciparum at 10 uM/well dose at 24 hrs in Schizont maturation assay; assay type: functional
[36] = tested on: Mus musculus; assay: Antimalarial activity against Plasmodium berghei evaluated in terms of mean survival time for mice (Mus musculus) at a dose of 40 mg/kg; assay type: functional
[37] = tested on: Plasmodium falciparum; assay: In vitro inhibition of Plasmodium falciparum at 5 uM/well dose at 72 hrs in total parasite growth assay; assay type: functional
[38] = tested on: Plasmodium falciparum; assay: In vitro inhibition of Plasmodium falciparum at 0.25 uM/well dose at 72 hrs in total parasite growth assay; assay type: functional
[39] = tested on: Mus musculus; assay: In vivo antimalarial activity against Plasmodium berghei in mice (Mus musculus); Inactive; assay type: functional, organism-based
[40] = tested on: Plasmodium falciparum; assay: In vitro growth inhibition against Plasmodium falciparum at a dose of 20 uM/well through total parasite growth inhibition assay over 72 hr; assay type: functional
[41] = tested on: Mus musculus; assay: Anti-malarial activity against Plasmodium berghei evaluated in terms of mean survival time for mice (Mus musculus) at a dose of 20 mg/kg; assay type: functional
[42] = tested on: Plasmodium falciparum; assay: In vitro antimalarial activity for Plasmodium falciparum at 50 uM/well dose at 24 hrs in Schizont maturation assay; assay type: functional
[43] = tested on: Plasmodium falciparum; assay: In vitro inhibition of Plasmodium falciparum at 50 uM/well dose at 72 hrs in total parasite growth assay; assay type: functional
[44] = tested on: Mus musculus; assay: Antimalarial activity against Plasmodium berghei evaluated in terms of mean survival time for mice (Mus musculus) at a dose of 160 mg/kg; assay type: functional
[45] = tested on: Mus musculus; assay: Antimalarial activity against Plasmodium berghei evaluated in terms of mean survival time for mice (Mus musculus) at a dose of 80 mg/kg; assay type: functional
[46] = tested on: Plasmodium falciparum; assay: In vitro inhibition of Plasmodium falciparum at 20 uM/well dose at 72 hrs in total parasite growth assay; assay type: functional
[47] = tested on: Plasmodium falciparum; assay: In vitro antimalarial activity for Plasmodium falciparum at 500 uM/well dose at 24 hrs in Schizont maturation assay; assay type: functional
[48] = tested on: Mus musculus; assay: In vivo anti-malarial activity against Plasmodium berghei in mice (Mus musculus) at a dose of 80 mg/kg; Active; assay type: functional, organism-based; set-up: dose 80 mg/kg
[49] = tested on: Mus musculus; assay: In vivo anti-malarial activity against Plasmodium berghei in mice (Mus musculus) at a dose of 16 mg/kg; Active; assay type: functional, organism-based; set-up: dose 16 mg/kg

Row | Structure (SMILES) | PGI [2] [%] | inhibition at 1 µM [11] [%] | PGI [22] [%] | PGI [24] [%] | inhibition at 100 µM [25] [%] | inhibition at 2.5 µM [26] [%] | PGI [27] [%] | PGI [29] [%] | inhibition at 5 µM [30] [%] | inhibition at 20 µM [31] [%] | inhibition at 0.25 µM [32] [%] | inhibition at 0.1 µM [33] [%] | inhibition at 0.5 µM [34] [%] | inhibition at 10 µM [35] [%] | Mean survival time [36] [days] | PGI [37] [%] | PGI [38] [%] | Mean survival time [41] [days] | inhibition at 50 µM [42] [%] | PGI [43] [%] | also measured
1 | CCN(CC)CCCC(C)Nc1ccnc2cc(Cl)ccc12.O=P(O)(O)O.O=P(O)(O)O (configuration not stated) [CHLOROQUINE PHOSPHATE] | 16.7 | 0 | – | – | – | – | – | – | – | – | – | – | – | – | – | – | – | – | – | – | inhibition at 32 µM [1]: 100%; inhibition at 16 µM [3]: 100%; inhibition at 8 µM [4]: 86.8%; inhibition at 1 µM [5]: 0%; inhibition at 64 µM [6]: 100%; PGI [7]: 100%; PGI [8]: 91.7%; inhibition at 32 µM [9]: 100%; PGI [10]: 100%; PGI [12]: 58.3%; inhibition at 2 µM [13]: 16%; inhibition at 64 µM [14]: 100%; inhibition at 2 µM [15]: 16%; inhibition at 4 µM [16]: 39.4%; PGI [17]: 100%; PGI [18]: 100%; inhibition at 8 µM [19]: 86.8%; inhibition at 16 µM [20]: 100%; inhibition at 4 µM [21]: 39.4%
2 | C=C(C#N)C(O)c1ccccc1 (configuration not stated) | 25.7 | 25.7 | 62.8 | 100 | 100 | 62.8 | 8.6 | 80 | 65.7 | 85 | 0 | 0 | 8.6 | 80 | – | – | – | – | – | – | PGI [23]: 85%; PGI [28]: 65.7%
3 | COC(=O)C(CNC(C)C)C(O)c1ccc([N+](=O)[O-])cc1 (configuration not stated) | 10 | 14 | 15 | 100 | 100 | 25 | 0 | 42.5 | 29 | 80 | 0 | 0 | 0 | 29 | 8.2 | 25 | 0 | 7 | 100 | 100 | Activity [39]: inactive; PGI [40]: 92.5%; Mean survival time [44]: 11.8 days; Mean survival time [45]: 9.8 days
4 | C=C(C#N)C(O)c1cccnc1 (configuration not stated) | 77.5 | 93 | 82.5 | 100 | 100 | 100 | 55 | 97.5 | 100 | 100 | 12 | 0 | 50 | 100 | 8.8 | 90 | 20 | 6.4 | 100 | 100 | PGI [46]: 100%; inhibition at 500 µM [47]: 100%; Activity [48]: Active; Mean survival time [44]: 15.2 days; Mean survival time [45]: 13.4 days; Activity [49]: Active
